Results taken from PMC12649225, “Machine Learning-Identified Potent Antimicrobial Peptides Against Multidrug-Resistant Bacteria and Skin Infections” (Antibiotics, 2025).
Read-outs that look alike come from different tables or passages of the source. Residues, ends and D or L forms follow the SMILES beside them.

How the values were obtained:
E. faecium LUH15122 = type: cell-based; conditions: for LC99.9 E. faecium LUH15122 50% Plasma 18 h / LC99.9 E. faecium LUH15122 RPMI 18 h: LUH15122, 18 h
Protocol: (§1) The bacterial strains used in this study included S. aureus JAR060131 [54] and the MDR ESKAPE pathogens Enterococcus faecium LUH15122, S. aureus LUH14616, Klebsiella pneumoniae LUH15104, A. baumannii RUH875 [55], Pseudomonas aeruginosa LUH15103, Enterobacter cloacae LUH15114, and the colistin-resistant Escherichia coli LUH15117. Before each experiment, bacteria from frozen stocks were cultured at 37 °C for 18–24 h on sheep blood agar plates (BioMérieux, Marcy-l’Étoile, France). All strains were then cultured from colonies either in tryptic soy broth (TSB; Oxoid, Basingstoke, UK) for A. baumannii, S. aureus, and E. faecium, or in brain heart infusion broth (BHI; Oxoid) for K. pneumoniae, P. aeruginosa, E. cloacae, and E. coli at 37 °C with shaking at 120 rpm for 18–24 h. Subsequently, bacteria were cultured to mid-logarithmic phase in the media described above at 37 °C with shaking at 120 rpm for 3 h. Bacteria were then washed twice with PBS and diluted to the required inoculum suspension concentration in Roswell Park Memorial Institute (RPMI)-1640 medium containing 20 mM HEPES and L-glutamine but without sodium bicarbonate (Sigma-Aldrich; hereafter referred to as RPMI), based on optical density at 620 nm. RPMI was selected because it supports bacterial growth without impairing AMP activity.
(§2) Bactericidal activity was assessed as described by de Breij et al.. Briefly, mid-logarithmic phase bacterial cultures were diluted to a final concentration of 1 × 10^7 colony-forming units (CFU)/mL in RPMI. Then, 10 µL was added to a final volume of 100 µL in RPMI (final concentration: 1 × 10^6 CFU/mL). Cultures were exposed to peptides either in RPMI or RPMI supplemented with 50% (v/v) human plasma (hereafter referred to as 50% plasma), obtained from four healthy volunteers after informed consent, frozen after collection, and pooled (Sanquin, Amsterdam, The Netherlands). Assays were performed in duplicate using round-bottom polypropylene microtiter plates (Costar, Arlington, VA, USA) and repeated three times. In the initial screening phase (Table 1, Table 2 and Table S1), peptide solutions of 1, 10, and 100 μM (final concentration) were tested against A. baumannii RUH875 and S. aureus JAR060131 in RPMI and in 50% plasma. After this selection process, two lead candidates, their RI variants, and reference peptides were tested with a final concentration range of 0.12 to 120 µM (two-fold dilutions) in RPMI and in 50% plasma (Table 3). The peptides were also tested against ESKAPE pathogens, with Synthetic Antimicrobial and Antibiofilm Peptide (SAAP)-148 as a reference peptide (Table 4).RPMI or 50% plasma served as no-treatment controls. After 2 and 18 h of incubation at 37 °C with shaking at 120 rpm in a humidified environment, the numbers of viable bacteria were quantified. Bactericidal activity was expressed as the lethal concentration 99.9% (LC99.9), defined as the lowest peptide concentration that killed ≥99.9% of bacteria within 2 h (LC99.9_2h) or 18 h (LC99.9_18h) compared to the initial inoculum.

P. aeruginosa LUH15103 = type: cell-based; conditions: for LC99.9 P. aeruginosa LUH15103 50% Plasma 2 h / LC99.9 P. aeruginosa LUH15103 RPMI 2 h: LUH15103, 2 h; for LC99.9 P. aeruginosa LUH15103 50% Plasma 18 h / LC99.9 P. aeruginosa LUH15103 RPMI 18 h: LUH15103, 18 h
Protocol: as §1, §2

[1] = test system: BJ human skin fibroblast cells; experiment: WST-1 metabolic activity assay (cell viability); conditions: lowest concentration causing <70% metabolic activity (WST-1); BJ fibroblasts; 24 h; DMEM with 2% FBS; 0.05-60 µM
Protocol: BJ human skin fibroblast cells (ATCC CRL-2522; RRID: CVCL_3653; LGC Standards, Germany (September 2023)) were cultured in Dulbecco’s Modified Eagle Medium (DMEM; Gibco, Waltham, MA, USA) supplemented with 10% (v/v) foetal bovine serum (FBS; Sigma-Aldrich) and 1% (v/v) penicillin/streptomycin (pen/strep; Gibco). Cell suspensions (5 × 10^5 cells/mL) were seeded into 96-well plates (100 μL/well; Thermo Scientific, Waltham, MA, USA) and allowed to adhere for 24 h. Monolayers were then exposed to two-fold serial dilutions of GDST peptides, their RI variants, and reference peptides (final concentrations: 0.05 to 60 µM) in fresh DMEM with 2% (v/v) FBS for 24 h at 37 °C in a humidified atmosphere with 5% CO2.
Cell viability and membrane integrity were assessed using the water-soluble tetrazolium salt (WST-1; Roche, Basel, Switzerland) assay and the lactate dehydrogenase (LDH; Abcam, Cambridge, UK) assay, respectively, according to manufacturer instructions. Results were expressed as percentages of metabolic activity and LDH leakage relative to untreated control cells and the positive lysis control, respectively. The cytotoxic concentration was defined as the lowest peptide concentration causing <70% metabolic activity and >30% LDH leakage. All experiments were performed in triplicate.

MDR ESKAPE pathogens = experiment: Bactericidal activity (LC99.9), statements for the whole panel; type: cell-based; conditions: for Concentrations required for E. cloacae, S. aureus and P. aeruginosa in 50% plasma within 2 h: range over the three species; for Concentrations killing ESKAPE pathogens in 50% plasma within 2 h / Concentrations killing ESKAPE pathogens in 50% plasma after 18 h / Concentrations killing ESKAPE pathogens in RPMI within 2 h: range over species
Protocol: as §1, §2

S. aureus JAR060131 = experiment: SYTOX Green membrane permeabilization assay; type: cell-based, Staphylococcus aureus; conditions: for Concentrations causing rapid rise in SYTOX fluorescence, S. aureus: RPMI, 1 μM SYTOX Green, 90 min, 37 °C; for Time to rise in SYTOX fluorescence intensity after peptide addition, S. aureus: at both sublethal and lethal concentrations
Protocol: Control samples were exposed to RPMI only. As a positive control, heat-killed bacteria were incubated at 95 °C for 10 min to induce maximum membrane permeabilization. Fluorescence (excitation: 485 nm, emission: 520 nm) was monitored every minute for 90 min at 37 °C using a […] plate reader (Ortenberg, Germany), with peptides and positive controls added after the third cycle. Background fluorescence (SYTOX Green alone) was subtracted from all values. All assays were performed in triplicate and repeated twice independently.

CC[C@@H](C)[C@@H](NC(=O)[C@@H](C)NC(=O)[C@@H](CCCCN)NC(=O)[C@@H](CCCCN)NC(=O)[C@@H](Cc1c[nH]c2ccccc12)NC(=O)[C@@H](Cc1c[nH]c2ccccc12)NC(=O)[C@@H](CCCNC(=N)N)NC(=O)[C@@H](CC(C)C)NC(=O)[C@@H](CC(C)C)NC(C)=O)C(=O)N[C@H](CCCCN)C(=O)N[C@@H](C(=O)N[C@H](Cc1c[nH]c2ccccc12)C(=O)N[C@H](CCCNC(=N)N)C(=O)N[C@H](CCCCN)C(N)=O)C(C)C [GDST-038-RI] (HELM PEPTIDE1{[ac].[dL].[dL].[dR].[dW].[dW].[dK].[dK].[dA].[dI].[dK].[dV].[dW].[dR].[dK].[am]}$$$$V2.0; N-terminus and C-terminus assumed)
LC99.9 E. faecium LUH15122 RPMI 2 h (E. faecium LUH15122; LUH15122, 2 h): 3.75 µM
LC99.9 E. faecium LUH15122 50% Plasma 18 h (E. faecium LUH15122): 3.75 µM
LC99.9 E. faecium LUH15122 RPMI 18 h (E. faecium LUH15122): 0.94 µM
LC99.9 P. aeruginosa LUH15103 50% Plasma 2 h (P. aeruginosa LUH15103): 30 µM
LC99.9 P. aeruginosa LUH15103 RPMI 2 h (P. aeruginosa LUH15103): 15 µM
LC99.9 P. aeruginosa LUH15103 50% Plasma 18 h (P. aeruginosa LUH15103): 15 µM
LC99.9 P. aeruginosa LUH15103 RPMI 18 h (P. aeruginosa LUH15103): 7.5 µM
Cytotoxicity Metabolic Activity <70% [1]: 3.75 µM
Concentrations required for E. cloacae, S. aureus and P. aeruginosa in 50% plasma within 2 h (MDR ESKAPE pathogens): 30 to 60 µM
Concentrations causing rapid rise in SYTOX fluorescence, S. aureus (S. aureus JAR060131): 1.88 to 3.75 µM

Ac-KRWVKIAKKWWRLL-NH2 [GDST-038]
LC99.9 E. faecium LUH15122 50% Plasma 2 h (E. faecium LUH15122; 50% plasma, 2 h, median of three independent experiments): 1.88 µM
LC99.9 E. faecium LUH15122 50% Plasma 18 h (E. faecium LUH15122): 7.5 µM
LC99.9 E. faecium LUH15122 RPMI 18 h (E. faecium LUH15122): 0.94 µM
LC99.9 E. faecium LUH15122 RPMI 2 h (E. faecium LUH15122; RPMI, 2 h, median of three independent experiments): 1.88 µM
LC99.9 P. aeruginosa LUH15103 50% Plasma 2 h (P. aeruginosa LUH15103): 15 µM
LC99.9 P. aeruginosa LUH15103 RPMI 2 h (P. aeruginosa LUH15103): 7.5 µM
LC99.9 P. aeruginosa LUH15103 50% Plasma 18 h (P. aeruginosa LUH15103): 15 µM
LC99.9 P. aeruginosa LUH15103 RPMI 18 h (P. aeruginosa LUH15103): 3.75 µM
Cytotoxicity Metabolic Activity <70% [1]: 3.75 µM
Concentrations required for E. cloacae, S. aureus and P. aeruginosa in 50% plasma within 2 h (MDR ESKAPE pathogens): 30 to 60 µM
Time to rise in SYTOX fluorescence intensity after peptide addition, S. aureus (S. aureus JAR060131): ≤ 1 min

Ac-LKRVWKRVFKLLKRYWRQLKKPVR-NH2 (N-terminus and C-terminus assumed) [SAAP-148, reference compound]
Cytotoxicity Metabolic Activity <70% [1]: 3.75 µM
Reduction in activity in plasma after 18 h (MDR ESKAPE pathogens; 50% plasma vs RPMI, 18 h, except E. cloacae, A. baumannii, K. pneumoniae): 8 to 16 fold
Concentrations causing rapid rise in SYTOX fluorescence, S. aureus (S. aureus JAR060131): 0.23 to 1.88 µM

Ac-KRWVKILKKVWRFL-NH2 [GDST-045]
LC99.9 E. faecium LUH15122 50% Plasma 2 h (E. faecium LUH15122; LUH15122, 2 h): 0.94 µM
LC99.9 E. faecium LUH15122 RPMI 2 h (E. faecium LUH15122; LUH15122, 2 h): 0.94 µM
LC99.9 E. faecium LUH15122 50% Plasma 18 h (E. faecium LUH15122): 3.75 µM
LC99.9 E. faecium LUH15122 RPMI 18 h (E. faecium LUH15122): 0.94 µM
LC99.9 P. aeruginosa LUH15103 50% Plasma 2 h (P. aeruginosa LUH15103): 60 µM
LC99.9 P. aeruginosa LUH15103 RPMI 2 h (P. aeruginosa LUH15103): 1.88 µM
LC99.9 P. aeruginosa LUH15103 50% Plasma 18 h (P. aeruginosa LUH15103): 30 µM
LC99.9 P. aeruginosa LUH15103 RPMI 18 h (P. aeruginosa LUH15103): 3.75 µM
Cytotoxicity Metabolic Activity <70% [1]: 3.75 µM
Concentrations killing ESKAPE pathogens in 50% plasma within 2 h (MDR ESKAPE pathogens): 0.94 to 120 µM
Concentrations killing ESKAPE pathogens in 50% plasma after 18 h (MDR ESKAPE pathogens; 18 h): 0.94 to 30 µM
Concentrations killing ESKAPE pathogens in RPMI within 2 h (MDR ESKAPE pathogens): 0.94 to 15 µM
Time to rise in SYTOX fluorescence intensity after peptide addition, S. aureus (S. aureus JAR060131): ≤ 1 min

CC[C@@H](C)[C@@H](NC(=O)[C@@H](CC(C)C)NC(=O)[C@@H](CCCCN)NC(=O)[C@@H](CCCCN)NC(=O)[C@H](NC(=O)[C@@H](Cc1c[nH]c2ccccc12)NC(=O)[C@@H](CCCNC(=N)N)NC(=O)[C@@H](Cc1ccccc1)NC(=O)[C@@H](CC(C)C)NC(C)=O)C(C)C)C(=O)N[C@H](CCCCN)C(=O)N[C@@H](C(=O)N[C@H](Cc1c[nH]c2ccccc12)C(=O)N[C@H](CCCNC(=N)N)C(=O)N[C@H](CCCCN)C(N)=O)C(C)C [GDST-045-RI] (HELM PEPTIDE1{[ac].[dL].[dF].[dR].[dW].[dV].[dK].[dK].[dL].[dI].[dK].[dV].[dW].[dR].[dK].[am]}$$$$V2.0; N-terminus and C-terminus assumed)
LC99.9 E. faecium LUH15122 50% Plasma 2 h (E. faecium LUH15122; LUH15122, 2 h): 1.88 µM
LC99.9 E. faecium LUH15122 RPMI 2 h (E. faecium LUH15122; LUH15122, 2 h): 0.94 µM
LC99.9 E. faecium LUH15122 50% Plasma 18 h (E. faecium LUH15122): 3.75 µM
LC99.9 E. faecium LUH15122 RPMI 18 h (E. faecium LUH15122): 0.94 µM
LC99.9 P. aeruginosa LUH15103 50% Plasma 2 h (P. aeruginosa LUH15103): 30 µM
LC99.9 P. aeruginosa LUH15103 RPMI 2 h (P. aeruginosa LUH15103): 3.75 µM
LC99.9 P. aeruginosa LUH15103 50% Plasma 18 h (P. aeruginosa LUH15103): 30 µM
LC99.9 P. aeruginosa LUH15103 RPMI 18 h (P. aeruginosa LUH15103): 3.75 µM
Cytotoxicity Metabolic Activity <70% [1]: 3.75 µM
Concentrations killing ESKAPE pathogens in 50% plasma within 2 h (MDR ESKAPE pathogens): 0.94 to 120 µM
Concentrations killing ESKAPE pathogens in 50% plasma after 18 h (MDR ESKAPE pathogens; 18 h): 0.94 to 30 µM
Concentrations killing ESKAPE pathogens in RPMI within 2 h (MDR ESKAPE pathogens): 0.94 to 15 µM
Concentrations causing rapid rise in SYTOX fluorescence, S. aureus (S. aureus JAR060131): 1.88 to 3.75 µM
